# Biological target: T1, IKZF2 (Helios) (Homo sapiens, UniProt Q96SW2+Q9UKS7)
# T1 construct: CRISPR/Cas-mediated insertion of the HiBiT peptide tag (Promega™) to the N-terminus of the IKZF2 gene locus; endogenous in cells; host or cells: MOLT4 cells, CRISPR/Cas knock-in of HiBiT at the endogenous IKZF2 locus
# Experiment: MOLT4 IKZF2 HiBit assay protocol (Example 64)
# Type: cell-based
# Conditions: MOLT4 IKZF2 HiBit cells, 10-point 30 μM to 1 nM; table title: after 6 hours of treatment (method: incubated 24 hours)
# Experimental: This protocol uses MOLT4 cells that were engineered using CRISPR/Cas9-mediated genomic insertion of HiBit, tagged to the N terminus of the IKZF2 coding sequence. Day 1. Created a 10-point dose response starting from 30 μM down to 1 nM using a Tecan D300e. Next added 8,000 cells/well of the MOLT4 IKZF2 HiBit cells to the compound plate. […] Day 2. Added Nano-Glo® HiBit Lytic Buffer/Nano-Glo® HiBit Lytic substrate/LgBit Protein mix to each well and incubated for 15 minutes. Finally, read luminescence signal using a BMG Labtech PHERAstar® FSX. Data was normalized to DMSO and graphed using GraphPad Prism to determine the concentration points at which 50% of HiBiT-Helios degradation was achieved by each compound. The extent of degradation (range of luminescence) from the highest to lowest concentration points was calculated to determine Dmax.
# T1 sequence (Q9UKS7 whole entry): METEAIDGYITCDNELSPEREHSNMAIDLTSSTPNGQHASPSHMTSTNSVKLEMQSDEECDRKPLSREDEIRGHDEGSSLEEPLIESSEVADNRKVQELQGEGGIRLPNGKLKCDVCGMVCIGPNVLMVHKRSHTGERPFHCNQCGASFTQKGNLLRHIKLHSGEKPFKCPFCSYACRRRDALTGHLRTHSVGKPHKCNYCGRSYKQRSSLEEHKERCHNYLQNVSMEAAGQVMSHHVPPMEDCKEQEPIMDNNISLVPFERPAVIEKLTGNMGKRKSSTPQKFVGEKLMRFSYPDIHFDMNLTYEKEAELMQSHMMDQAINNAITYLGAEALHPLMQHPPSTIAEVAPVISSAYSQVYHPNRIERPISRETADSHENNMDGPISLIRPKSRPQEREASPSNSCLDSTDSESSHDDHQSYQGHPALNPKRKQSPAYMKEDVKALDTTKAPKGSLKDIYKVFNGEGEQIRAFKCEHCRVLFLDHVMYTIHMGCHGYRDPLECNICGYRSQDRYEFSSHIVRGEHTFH
# T1 sequence (Q96SW2 whole entry): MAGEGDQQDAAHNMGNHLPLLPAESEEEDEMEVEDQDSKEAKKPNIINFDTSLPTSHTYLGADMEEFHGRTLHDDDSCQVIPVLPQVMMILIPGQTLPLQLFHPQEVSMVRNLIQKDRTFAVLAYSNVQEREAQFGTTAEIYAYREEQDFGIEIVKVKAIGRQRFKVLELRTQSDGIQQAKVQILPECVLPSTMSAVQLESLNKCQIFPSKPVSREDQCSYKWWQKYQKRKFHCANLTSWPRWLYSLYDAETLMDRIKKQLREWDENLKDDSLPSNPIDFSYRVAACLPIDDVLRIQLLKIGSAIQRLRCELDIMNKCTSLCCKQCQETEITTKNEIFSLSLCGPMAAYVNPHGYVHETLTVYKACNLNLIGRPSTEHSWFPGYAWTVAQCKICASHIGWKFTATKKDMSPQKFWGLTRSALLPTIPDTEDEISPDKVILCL
# T1 sequence (Q16531 whole entry partner): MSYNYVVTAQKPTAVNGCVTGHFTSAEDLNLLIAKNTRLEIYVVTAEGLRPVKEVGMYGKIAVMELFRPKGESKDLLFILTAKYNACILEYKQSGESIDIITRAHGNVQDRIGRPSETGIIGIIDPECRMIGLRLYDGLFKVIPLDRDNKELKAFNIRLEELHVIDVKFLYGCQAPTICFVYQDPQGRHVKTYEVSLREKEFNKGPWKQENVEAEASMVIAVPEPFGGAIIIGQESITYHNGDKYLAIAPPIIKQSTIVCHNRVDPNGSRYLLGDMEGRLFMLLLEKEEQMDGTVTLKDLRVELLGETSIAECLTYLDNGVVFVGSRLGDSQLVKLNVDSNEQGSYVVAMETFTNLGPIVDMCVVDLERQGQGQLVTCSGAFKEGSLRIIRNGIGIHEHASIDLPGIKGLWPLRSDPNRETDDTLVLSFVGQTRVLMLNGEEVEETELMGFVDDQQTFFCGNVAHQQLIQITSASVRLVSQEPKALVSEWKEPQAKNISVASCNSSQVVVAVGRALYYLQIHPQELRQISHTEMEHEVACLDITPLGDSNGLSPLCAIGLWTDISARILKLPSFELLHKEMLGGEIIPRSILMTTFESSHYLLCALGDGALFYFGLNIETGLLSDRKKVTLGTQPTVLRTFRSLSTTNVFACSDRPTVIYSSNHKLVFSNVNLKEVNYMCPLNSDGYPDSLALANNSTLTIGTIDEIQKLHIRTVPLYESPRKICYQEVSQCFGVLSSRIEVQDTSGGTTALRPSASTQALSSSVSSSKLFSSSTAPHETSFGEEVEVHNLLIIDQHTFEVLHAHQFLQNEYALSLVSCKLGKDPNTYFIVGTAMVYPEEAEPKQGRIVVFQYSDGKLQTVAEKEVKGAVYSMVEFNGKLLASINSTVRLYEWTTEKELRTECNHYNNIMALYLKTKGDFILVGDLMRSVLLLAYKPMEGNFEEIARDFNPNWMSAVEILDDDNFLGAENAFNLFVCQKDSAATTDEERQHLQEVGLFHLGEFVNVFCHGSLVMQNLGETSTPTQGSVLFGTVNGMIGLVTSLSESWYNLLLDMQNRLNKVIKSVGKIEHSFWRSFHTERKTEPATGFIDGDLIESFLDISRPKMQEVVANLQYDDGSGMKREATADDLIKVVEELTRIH
Structure (SMILES),DC50 [nM],IKZF2 DC50 (M)
"O=C1CCC(N2Cc3cc(C4CCN(Cc5ccc6nc(-c7ccccc7)nn6c5)CC4)ccc3C2=O)C(=O)N1 (stereo not drawn) [Compound 55, 3-(1-oxo-5-(1-((2-phenyl-[1,2,4]triazolo[1,5-a]pyridin-6-yl)methyl)piperidin-4-yl)isoindolin-2-yl)piperidine-2,6-dione]",25 to 100,–
"Cc1ccc(-n2cnc3ccc(CN4CCC(c5ccc6c(c5)CN(C5CCC(=O)NC5=O)C6=O)CC4)cc3c2=O)cn1 (stereo not drawn) [Compound 69, 3-(5-(1-((3-(6-methylpyridin-3-yl)-4-oxo-3,4-dihydroquinazolin-6-yl)methyl)piperidin-4-yl)-1-oxoisoindolin-2-yl)piperidine-2,6-dione]",–,+ +
"O=C1CCC(N2Cc3cc(C4CCN(Cc5ccc6ncn(-c7cncc(F)c7)c(=O)c6c5)CC4)ccc3C2=O)C(=O)N1 (stereo not drawn) [Compound 75, 3-(5-(1-((3-(5-fluoropyridin-3-yl)-4-oxo-3,4-dihydroquinazolin-6-yl)methyl)piperidin-4-yl)-1-oxoisoindolin-2-yl)piperidine-2,6-dione]",25 to 100,–
"O=C1CCC(N2Cc3c(ccc(C4CCN(Cc5ccc6ncn(-c7ccccn7)c(=O)c6c5)CC4)c3F)C2=O)C(=O)N1 (stereo not drawn) [Compound 85, 3-(4-fluoro-1-oxo-5-(1-((4-oxo-3-(pyridin-2-yl)-3,4-dihydroquinazolin-6-yl)methyl)piperidin-4-yl)isoindolin-2-yl)piperidine-2,6-dione]",25 to 100,–
"O=C1CCC(N2Cc3c(ccc(C4CCN(Cc5ccc6ncn(-c7cccnc7)c(=O)c6c5)CC4)c3F)C2=O)C(=O)N1 (stereo not drawn) [Compound 89, 3-(4-fluoro-1-oxo-5-(1-((4-oxo-3-(pyridin-3-yl)-3,4-dihydroquinazolin-6-yl)methyl)piperidin-4-yl)isoindolin-2-yl)piperidine-2,6-dione]",5 to 25,–
"O=C1CCC(N2Cc3cc(C4CCN(Cc5ccc6cc(-c7ccccn7)nn6c5)CC4)ccc3C2=O)C(=O)N1 (stereo not drawn) [Compound 92, 3-(1-oxo-5-(1-((2-(pyridin-2-yl)pyrazolo[1,5-a]pyridin-6-yl)methyl)piperidin-4-yl)isoindolin-2-yl)piperidine-2,6-dione]",5 to 25,–
"O=C1CCC(N2Cc3cc(C4CCN(Cc5cn6cc(-c7ccccc7)ccc6n5)CC4)ccc3C2=O)C(=O)N1 (stereo not drawn) [Compound 96, 3-(1-oxo-5-(1-((6-phenylimidazo[1,2-a]pyridin-2-yl)methyl)piperidin-4-yl)isoindolin-2-yl)piperidine-2,6-dione]",25 to 100,–
"O=C1CCC(N2Cc3cc(C4CCN(Cc5cn6cc(-c7cccnc7)ccc6n5)CC4)ccc3C2=O)C(=O)N1 (stereo not drawn) [Compound 97, 3-(1-oxo-5-(1-((6-(pyridin-3-yl)imidazo[1,2-a]pyridin-2-yl)methyl)piperidin-4-yl)isoindolin-2-yl)piperidine-2,6-dione]",25 to 100,–
"O=C1CCC(N2Cc3cc(C4CCN(Cc5cn6ccc(-c7ccccc7)cc6n5)CC4)ccc3C2=O)C(=O)N1 (stereo not drawn) [Compound 98, 3-(1-oxo-5-(1-((7-phenylimidazo[1,2-a]pyridin-2-yl)methyl)piperidin-4-yl)isoindolin-2-yl)piperidine-2,6-dione]",25 to 100,–
"O=C1CCC(N2Cc3cc(C4CCN(Cc5cn6ccc(-c7cccnc7)cc6n5)CC4)ccc3C2=O)C(=O)N1 (stereo not drawn) [Compound 99, 3-(1-oxo-5-(1-((7-(pyridin-3-yl)imidazo[1,2-a]pyridin-2-yl)methyl)piperidin-4-yl)isoindolin-2-yl)piperidine-2,6-dione]",25 to 100,–

# Continued, values first:
DC50 [nM],IKZF2 DC50 (M),Structure (SMILES)
5 to 25,–,"O=C1CCC(N2Cc3cc(C4CCN(Cc5ccc6ncn(-c7cccc(F)c7)c(=O)c6c5)CC4)ccc3C2=O)C(=O)N1 (stereo not drawn) [Compound 28, 3-(5-(1-((3-(3-fluorophenyl)-4-oxo-3,4-dihydroquinazolin-6-yl)methyl)piperidin-4-yl)-1-oxoisoindolin-2-yl)piperidine-2,6-dione]"
< 5,–,"O=C1CCC(N2Cc3cc(C4CCN(Cc5ccc6nc(-c7ccccc7)cn6c5)CC4)ccc3C2=O)C(=O)N1 (stereo not drawn) [Compound 54, 3-(1-oxo-5-(1-((2-phenylimidazo[1,2-a]pyridin-6-yl)methyl)piperidin-4-yl)isoindolin-2-yl)piperidine-2,6-dione]"
5 to 25,–,"O=C1CCC(N2Cc3cc(C4CCN(Cc5ccc6ncn(-c7cccc(C(F)(F)F)c7)c(=O)c6c5)CC4)ccc3C2=O)C(=O)N1 (stereo not drawn) [Compound 60, 3-(1-oxo-5-(1-((4-oxo-3-(3-(trifluoromethyl)phenyl)-3,4-dihydroquinazolin-6-yl)methyl)piperidin-4-yl)isoindolin-2-yl)piperidine-2,6-dione]"
5 to 25,–,"N#Cc1cccc(-n2cnc3ccc(CN4CCC(c5ccc6c(c5)CN(C5CCC(=O)NC5=O)C6=O)CC4)cc3c2=O)c1 (stereo not drawn) [Compound 61, 3-(6-((4-(2-(2,6-dioxopiperidin-3-yl)-1-oxoisoindolin-5-yl)piperidin-1-yl)methyl)-4-oxoquinazolin-3(4H)-yl)benzonitrile]"
5 to 25,–,"Cc1cccc(-n2cnc3ccc(CN4CCC(c5ccc6c(c5)CN(C5CCC(=O)NC5=O)C6=O)CC4)cc3c2=O)n1 (stereo not drawn) [Compound 62, 3-(5-(1-((3-(6-methylpyridin-2-yl)-4-oxo-3,4-dihydroquinazolin-6-yl)methyl)piperidin-4-yl)-1-oxoisoindolin-2-yl)piperidine-2,6-dione]"
5 to 25,–,"CC(C)c1cccc(-n2cnc3ccc(CN4CCC(c5ccc6c(c5)CN(C5CCC(=O)NC5=O)C6=O)CC4)cc3c2=O)n1 (stereo not drawn) [Compound 63, 3-(5-(1-((3-(6-isopropylpyridin-2-yl)-4-oxo-3,4-dihydroquinazolin-6-yl)methyl)piperidin-4-yl)-1-oxoisoindolin-2-yl)piperidine-2,6-dione]"
5 to 25,–,"O=C1CCC(N2Cc3cc(C4CCN(Cc5ccc6ncn(-c7cccc(C(F)(F)F)n7)c(=O)c6c5)CC4)ccc3C2=O)C(=O)N1 (stereo not drawn) [Compound 64, 3-(1-oxo-5-(1-((4-oxo-3-(6-(trifluoromethyl)pyridin-2-yl)-3,4-dihydroquinazolin-6-yl)methyl)piperidin-4-yl)isoindolin-2-yl)piperidine-2,6-dione]"
5 to 25,–,"COc1cccc(-n2cnc3ccc(CN4CCC(c5ccc6c(c5)CN(C5CCC(=O)NC5=O)C6=O)CC4)cc3c2=O)n1 (stereo not drawn) [Compound 65, 3-(5-(1-((3-(6-methoxypyridin-2-yl)-4-oxo-3,4-dihydroquinazolin-6-yl)methyl)piperidin-4-yl)-1-oxoisoindolin-2-yl)piperidine-2,6-dione]"
5 to 25,–,"O=C1CCC(N2Cc3cc(C4CCN(Cc5ccc6ncn(-c7cccnc7)c(=O)c6c5)CC4)ccc3C2=O)C(=O)N1 (stereo not drawn) [Compound 67, 3-(1-oxo-5-(1-((4-oxo-3-(pyridin-3-yl)-3,4-dihydroquinazolin-6-yl)methyl)piperidin-4-yl)isoindolin-2-yl)piperidine-2,6-dione]"
< 5,–,"Cc1ncccc1-n1cnc2ccc(CN3CCC(c4ccc5c(c4)CN(C4CCC(=O)NC4=O)C5=O)CC3)cc2c1=O (stereo not drawn) [Compound 68, 3-(5-(1-((3-(2-methylpyridin-3-yl)-4-oxo-3,4-dihydroquinazolin-6-yl)methyl)piperidin-4-yl)-1-oxoisoindolin-2-yl)piperidine-2,6-dione]"
5 to 25,–,"Cn1cc(-n2cnc3ccc(CN4CCC(c5ccc6c(c5)CN(C5CCC(=O)NC5=O)C6=O)CC4)cc3c2=O)cn1 (stereo not drawn) [Compound 82, 3-(5-(1-((3-(1-methyl-1H-pyrazol-4-yl)-4-oxo-3,4-dihydroquinazolin-6-yl)methyl)piperidin-4-yl)-1-oxoisoindolin-2-yl)piperidine-2,6-dione]"
< 5,–,"Cc1nc2ccc(CN3CCC(c4ccc5c(c4)CN(C4CCC(=O)NC4=O)C5=O)CC3)cc2c(=O)n1-c1ccccc1 (stereo not drawn) [Compound 83, 3-(5-(1-((2-methyl-4-oxo-3-phenyl-3,4-dihydroquinazolin-6-yl)methyl)piperidin-4-yl)-1-oxoisoindolin-2-yl)piperidine-2,6-dione]"
< 5,–,"Cc1nc2ccc(CN3CCC(c4ccc5c(c4)CN(C4CCC(=O)NC4=O)C5=O)CC3)cc2c(=O)n1-c1ccccn1 (stereo not drawn) [Compound 84, 3-(5-(1-((2-methyl-4-oxo-3-(pyridin-2-yl)-3,4-dihydroquinazolin-6-yl)methyl)piperidin-4-yl)-1-oxoisoindolin-2-yl)piperidine-2,6-dione]"
< 5,–,"O=C1CCC(N2Cc3cc(C4CCN(Cc5cc6c(=O)n(-c7ccccn7)cnc6cc5F)CC4)ccc3C2=O)C(=O)N1 (stereo not drawn) [Compound 87, 3-(5-(1-((7-fluoro-4-oxo-3-(pyridin-2-yl)-3,4-dihydroquinazolin-6-yl)methyl)piperidin-4-yl)-1-oxoisoindolin-2-yl)piperidine-2,6-dione]"

# Source: patent publication US20240034723A1, “PIPERIDINYL SMALL MOLECULE DEGRADERS OF HELIOS AND METHODS OF USE” (DANA-FARBER CANCER INSTITUTE, INC., priority 2020, published 2024)
